{
  "source": "patent EP4640674A1",
  "about": "“CRYSTAL FORMS OF ETHOXIMOD, PREPARATION METHOD THEREFOR AND USE THEREOF” (Jiankuan (Suzhou) Biotechnology Co., Ltd, priority 2022, dated 2024)",
  "experiment": "Stability of crystal form C on drying (XRPD)",
  "format": "physicochemical",
  "from_the_text": "The sample was subjected to a TGA test. From the above results, it is speculated that the crystal form C is an unstable channel hydrate that is prone to crystal transformation during drying and placement, making the preparation of a pure phase difficult.",
  "data": [
    {"compound": "CCc1nc(-c2ccc(-c3ccc(CCC(N)(CO)CO)cc3)cc2)co1.Cl", "note": "[crystal form C, 2-amino-2-{2-(4'-(2-ethyloxazol-4-yl)-[1,1'-biphenyl]-4-yl)ethyl}-1,3-propylene glycol hydrochloride]", "values": [
      {"measurement": "crystal form after drying (XRPD)", "setting": "purged with nitrogen at room temperature for 3 h", "result": "partially crystal transformed into the crystal form A"},
      {"measurement": "crystal form after drying (XRPD)", "setting": "vacuum at 50 °C under reduced pressure, dried overnight", "result": "partially crystal transformed into a crystal form A"}
    ]}
  ]
}
